Source: BigSolDB 2.1

NC(=O)c1ccncc1
solubility (mole fraction)
Conditions	278.15 K	283.15 K	288.15 K	293.15 K	298.15 K	303.15 K	308.15 K	313.15 K	318.15 K	323.15 K
in DMAc	0.114	0.129	0.147	0.168	0.19	0.213	0.236	0.256	0.278	0.299
in DMF	0.13	0.135	0.147	0.157	0.17	0.181	0.193	0.208	0.221	0.24
in THF	0.0108	0.012	0.0143	0.0167	0.0194	0.0218	0.0247	0.0276	0.0308	0.0344
in acetone	0.00012	0.00014	0.00017	0.00021	0.00025	0.00029	0.00034	0.00039	0.00047	0.00057
in acetonitrile	0.00251	0.00313	0.00392	0.00473	0.00572	0.00695	0.00841	0.0102	0.0125	0.0152
in ethanol	0.0191	0.0221	0.0266	0.0307	0.0347	0.0407	0.0461	0.0548	0.0664	0.0796
in ethyl acetate	0.00272	0.00341	0.00414	0.00504	0.0062	0.00754	0.0105	0.0138	0.0172	0.0218
in isopropanol	0.0156	0.0182	0.0211	0.0253	0.0291	0.034	0.0381	0.0465	0.0559	0.0669
in isopropyl acetate	0.00204	0.00217	0.0025	0.00283	0.00328	0.00397	0.00505	0.00616	0.00734	0.00871
in methanol	0.0336	0.0392	0.0439	0.0515	0.0602	0.0678	0.0773	0.0911	0.103	0.122
in methyl acetate	0.00372	0.00431	0.00542	0.00668	0.00826	0.00969	0.0127	0.0152	0.0184	0.0218
in n-butanol	0.0172	0.0189	0.022	0.0248	0.0284	0.0319	0.0359	0.041	0.0482	0.0565
in n-pentanol	0.0126	0.0136	0.0152	0.0177	0.0204	0.0234	0.0279	0.033	0.039	0.046
in n-propanol	0.0218	0.0242	0.0275	0.0324	0.0374	0.0418	0.0455	0.0541	0.0639	0.0764
in n-propyl acetate	0.00198	0.00249	0.00323	0.00404	0.00494	0.00615	0.0072	0.00832	0.00937	0.0109
